Like-named read-outs stand apart in the source and are kept apart here. Where only a bound is given, the exact number is not on record here.

We go through 7 compounds from PMC3086806, “Mining a Cathepsin Inhibitor Library for New Antiparasitic Drug Leads” (PLoS Neglected Tropical Diseases, 2011).

For one series, the target named is T1, falcipain-3 (Plasmodium falciparum, UniProt Q8IIL0).
T1 construct: made in house
T1 sequence (Q8IIL0 243-492): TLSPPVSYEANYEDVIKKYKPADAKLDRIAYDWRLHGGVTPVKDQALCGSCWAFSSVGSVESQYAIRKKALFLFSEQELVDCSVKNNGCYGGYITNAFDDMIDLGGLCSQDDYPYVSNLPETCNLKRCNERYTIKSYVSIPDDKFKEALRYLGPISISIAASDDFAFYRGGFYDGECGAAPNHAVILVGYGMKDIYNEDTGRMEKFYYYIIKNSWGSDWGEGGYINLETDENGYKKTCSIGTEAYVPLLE
Put plainly: Falcipain-3 protease inhibition assay (Z-Leu-Arg-AMC). The format is biochemical. The method, then: (§1) Recombinant cruzain, rhodesain, TbCatB, falcipain-2 and falcipain-3 were expressed as described previously, [39], [40], [41], [42]. Inhibitor stock solutions were prepared in DMSO and screened at 0.1 µM for cruzain and rhodesain, 1 µM for TbCatB and 50 nM for falcipain-3 (0.5% DMSO in assay). […] Protease inhibition assays for cruzain and rhodesain were carried out in 96 well plate format as described previously. Cruzain (4 nM), rhodesain (4 nM) or TbCatB (258 nM) was incubated with test compound in 100 mM sodium acetate, pH 5.5, containing 5 mM DTT and 0.01% Triton X-100 (buffer A), for 5 min at room temperature (the higher concentration of TbCatB was required due to its lower intrinsic activity against the fluorogenic substrate). Then buffer A containing Z-Phe-Arg-AMC (Bachem) was added to enzyme-compound mixture to give 10 µM substrate in a final assay volume of 200 µL. The rate of free AMC release was measured at excitation and emission wavelengths of 355 and 460 nm, respectively, with a microtiter plate spectrofluorimeter (SpectraMax M5, Molecular Devices) for 3 min. Percentage inhibition of test compound was calculated relative to the DMSO control (0% inhibition control). IC50 values were determined with Prism 4 software (GraphPad, San Diego, CA) using sigmoidal dose-response variable slope model.
(§2) Protease inhibition assays for falcipain-2 and falcipain-3 were carried out in 96 well plate format as described previously, [43] with modification for end-point readout. Falcipain-2 (21 nM) or falcipain-3 (78 nM) was incubated with test compound for 10 min at room temperature in 200 mM sodium acetate, pH 6, 10 mM DTT and 3.6% glycerol and 0.01% Triton X-100 (buffer B). Then buffer B containing Z-Leu-Arg-AMC (Bachem) was added to the enzyme-compound mixture to give 25 µM substrate in a final assay volume of 200 µL. After 15 min, 50 µL of 5 M acetic acid was added to each well to stop the reaction. End-point fluorescence was read in a spectrofluorimeter as above. The 0% inhibition control wells contained DMSO while 100% inhibition control wells contained 50 µM E-64 (Sigma). Percentage inhibition of test compound was calculated relative to the controls and IC50 curve fitting was performed with Prism 4 software as above.

The target in another series is T2, falcipain-2 (Plasmodium falciparum, UniProt Q8I6U4).
T2 construct: made in house
T2 sequence (Q8I6U4 244-484): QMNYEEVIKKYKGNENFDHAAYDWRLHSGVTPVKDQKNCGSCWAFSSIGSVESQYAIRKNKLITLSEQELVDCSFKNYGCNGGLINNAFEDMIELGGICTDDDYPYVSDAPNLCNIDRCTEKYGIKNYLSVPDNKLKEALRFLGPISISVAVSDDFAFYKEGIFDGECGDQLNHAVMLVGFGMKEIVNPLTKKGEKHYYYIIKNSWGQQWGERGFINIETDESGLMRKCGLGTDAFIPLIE
As to the kind of experiment: Falcipain-2 protease inhibition assay (Z-Leu-Arg-AMC). In kind it is biochemical. The procedure: as §1, §2

The subject of series [1] is W2-strain P. falciparum parasites. As to the kind of experiment: P. falciparum growth inhibition assay. In kind it is cell-based, Plasmodium falciparum. The following applies: for GI50: Plasmodium falciparum, read-out: GI50 P. falc. W2. The method, then: The growth inhibition assay for P. falciparum was conducted as described previously. W2-strain P. falciparum parasites (1% parasitemia, 2% hematocrit) were cultured at 37°C in human red blood cells under the atmosphere of 3% O2, 5% CO2 balance N2 in 0.2 mL of per well in medium RPMI-1640 supplemented with 10% human serum in duplicate 96-well flat bottom culture plates in the presence of inhibitors. Tested compounds were serially diluted 1∶3 in the range 10,000 – 4.6 nM, with maximum DMSO concentration of 0.1%. Following 48 hours of incubation, the medium was removed and the cells were fixed in 2% formaldehyde in PBS. Parasite growth was evaluated by flow cytometry on a FACsort (Becton Dickinson) equipped with AMS-1 loader (Cytek Development) after staining with 1 nM DNA dye YOYO-1(Molecular Probes) in 100 mM NH4Cl, 0.8% NaCl. Parasitemias were determined from dot plots (forward scatter vs. fluorescence) using […] software (Becton Dickinson). IC50 values for growth inhibition were determined from plots of percentage control parasitemia over inhibitor concentration using GraphPad Prism software.

Series [2] is described as follows: Jurkat cell cytotoxicity assay. The format is cell-based. The note with it: human, Jurkat cells (clone E6-1), read-out: Cytotoxicity (% inhibition at 10 µM) Jurkat cells. The procedure: Jurkat cells (clone E6-1) were grown in complete RPMI-1640 medium containing 10% FBS, 50 U/mL penicillin and 50 µg/mL streptomycin (Invitrogen) at 37°C under a humidified atmosphere and 5% CO2. For cytotoxicity testing, cells were diluted to 1×10^5 per ml in complete RPMI-1640 medium. Test compound stocks were prepared in 100% DMSO and screened at 10 µM against cells (1×10^4 cells per well) in sterile Greiner 96-well flat white opaque culture plates (0.5% final DMSO concentration). The 0% inhibition control wells contained 0.5% DMSO while 100% inhibition control wells contained 40 µM staurosporine. After compound addition, plates were incubated for 40 hr at 37°C. At the end of the incubation period, 50 µL of CellTiter-Glo™ reagent (Promega Inc., Madison, WI, USA) was added to each well and plates were placed on an orbital shaker at room temperature for 2 min to induce lysis. After a further 10 min incubation without shaking to stabilize the signal, the ATP-bioluminescence of each well was determined using an Analyst HT plate reader (Molecular Devices, Sunnyvale, CA, USA). Calculations of percentage inhibition and IC50 were performed similar to those in the T. brucei brucei assay.

A further series deals with human cathepsin L. Details: method as in data provided by Celera Genomics. The note with it: historical data; ref data provided by Celera Genomics; read-out: Ki catL; cited from earlier work.
In the next series the target is human cathepsin B. Details: method as in data provided by Celera Genomics. The note with it: historical data; ref data provided by Celera Genomics; read-out: Ki catB; cited from earlier work.
Another series has as its target T3, rhodesain (Trypanosoma brucei rhodesiense, UniProt Q95PM0).
T3 construct: made in house
Put plainly: Rhodesain protease inhibition assay (Z-Phe-Arg-AMC). The format is biochemical. The procedure:
as §1

The target in the next series is T4, TbCatB (Trypanosoma brucei, UniProt Q6R7Z5).
T4 construct: made in house
T4 sequence (Q6R7Z5 23-340): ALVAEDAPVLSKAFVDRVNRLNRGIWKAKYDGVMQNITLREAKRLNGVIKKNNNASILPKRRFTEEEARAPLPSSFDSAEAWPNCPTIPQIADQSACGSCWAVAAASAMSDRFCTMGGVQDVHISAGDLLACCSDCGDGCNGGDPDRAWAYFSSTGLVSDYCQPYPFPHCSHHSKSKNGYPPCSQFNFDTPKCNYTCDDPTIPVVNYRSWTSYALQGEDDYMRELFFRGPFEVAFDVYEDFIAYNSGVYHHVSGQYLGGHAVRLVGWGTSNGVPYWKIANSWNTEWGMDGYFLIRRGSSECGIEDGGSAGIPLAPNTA
Put plainly: TbCatB protease inhibition assay (Z-Phe-Arg-AMC). The format is biochemical. The method, then: as §1

The next series addresses T5, cruzain (Trypanosoma cruzi, UniProt P25779).
T5 construct: made in house
As to the kind of experiment: Cruzain protease inhibition assay (Z-Phe-Arg-AMC). In kind it is biochemical. The procedure:
as §1

The subject of series [3] is T. brucei brucei clone 427-221a bloodstream forms. Put plainly: T. brucei brucei growth inhibition assay. The format is cell-based. The following applies: Trypanosoma brucei; 40 hours. The method, then: The growth inhibition assay for T. brucei brucei was conducted as described previously. Bloodstream forms of the monomorphic T. brucei brucei clone 427-221a were grown in complete HMI-9 medium containing 10% FBS, 10% Serum Plus medium (Sigma Inc. St. Louis Mo. USA), 50 U/mL penicillin and 50 µg/mL streptomycin (Invitrogen) at 37°C under a humidified atmosphere and 5% CO2. […] 5 µL of each dilution was added to 95 µL of diluted parasites (1×10^4 cells per well) in sterile Greiner 96-well flat white opaque culture plates such that the final DMSO concentration was 0.5%. The 0% inhibition control wells contained 0.5% DMSO while 100% inhibition control wells contained 50 µM thimerosal (Sigma). After compound addition, plates were incubated for 40 hours at 37°C. At the end of the incubation period, 50 µL of CellTiter-Glo™ reagent (Promega Inc., Madison, WI, USA) was added to each well and plates were placed on an orbital shaker at room temperature for 2 min to induce lysis. After an additional 10 min incubation without shaking to stabilize the signal, the ATP-bioluminescence of each well was determined using an Analyst HT plate reader (Molecular Devices, Sunnyvale, CA, USA). Raw values were converted to log10 and percentage inhibition calculated relative to the controls. IC50 curve fittings were performed with Prism 4 software as above.

Series [4] deals with intracellular T. cruzi (CA-I/72) in BESM cells. As to the kind of experiment: T. cruzi amastigote growth inhibition assay. In kind it is cell-based. The note with it: Trypanosoma cruzi; infected BESM cells, 72 hours. The procedure: The growth inhibition assay for the intracellular T. cruzi was conducted in 96-well plate format as described previously. Briefly, bovine embryo skeletal muscle (BESM) cells (2×10^3/well), seeded overnight, were infected with CA-I/72 T. cruzi trypomastigotes (2×10^3/well). Sixteen hours post-infection, test compounds (serial dilution concentrations starting from 20 µM) were added and assay plates were incubated for an additional 72 hours at 37°C with 5% CO2. Cells were then washed once in PBS, fixed with 4% paraformaldehyde and stained with DNA fluorescent dye DAPI (4′ 6-diamidino-2-phenylindole). The assay plates were then imaged in the IN Cell Analyzer 2000 (GE Healthcare) with the excitation and emission filters set of 350 nm and 460 nm, respectively, to detect DAPI signals. The feature extraction module in IN Cell Developer Toolbox 1.7 software was used to count host nuclei and parasite kinetoplasts by size difference.

T5 sequence (P25779 123-467): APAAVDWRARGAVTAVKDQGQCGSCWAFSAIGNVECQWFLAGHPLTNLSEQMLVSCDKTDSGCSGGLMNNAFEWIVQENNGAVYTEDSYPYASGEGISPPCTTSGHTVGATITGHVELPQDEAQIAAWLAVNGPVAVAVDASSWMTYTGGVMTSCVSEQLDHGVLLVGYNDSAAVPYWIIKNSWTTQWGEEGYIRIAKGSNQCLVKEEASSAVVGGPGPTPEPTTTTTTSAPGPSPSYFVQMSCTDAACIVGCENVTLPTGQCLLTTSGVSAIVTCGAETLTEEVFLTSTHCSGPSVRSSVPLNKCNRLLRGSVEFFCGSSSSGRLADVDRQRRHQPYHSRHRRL
T3 sequence (Q95PM0 entry or part of it): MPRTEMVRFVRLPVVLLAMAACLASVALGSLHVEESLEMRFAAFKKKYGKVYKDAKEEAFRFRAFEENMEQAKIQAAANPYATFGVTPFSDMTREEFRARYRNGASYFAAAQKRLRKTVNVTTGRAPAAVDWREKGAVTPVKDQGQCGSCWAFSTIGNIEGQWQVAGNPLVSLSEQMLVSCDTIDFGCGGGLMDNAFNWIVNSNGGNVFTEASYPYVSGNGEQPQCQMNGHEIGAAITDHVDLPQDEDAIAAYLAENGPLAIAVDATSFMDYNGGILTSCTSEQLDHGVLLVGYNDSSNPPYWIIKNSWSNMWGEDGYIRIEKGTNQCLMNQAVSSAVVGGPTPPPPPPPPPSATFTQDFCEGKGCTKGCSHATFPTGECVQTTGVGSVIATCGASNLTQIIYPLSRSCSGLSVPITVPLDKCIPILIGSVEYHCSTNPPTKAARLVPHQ

As for `CC(C)CC(NC(=O)N1CCOCC1)C(=O)NC(C=CS(=O)(=O)c1ccccc1)CCc1ccc(O)cc1` (stereo not drawn) [Compound 18a], the IC50 (commonly the midpoint of a concentration-inhibition curve) is 40 nM on falcipain-3 (read-out: IC50 falcipain-3) and 7.6 nM at falcipain-2. Moreover, the GI50 (commonly the concentration that inhibits growth by half) in series [1] (cultured W2 strain, 48 hours) is 20 nM. Moreover, the cytotoxicity at 40 h, 10 µM in series [2] is < 5%. Moreover, the results for the Ki at human cathepsin L and at human cathepsin B were 3 nM and 440 nM, respectively.

With `CC(C)CC(NC(=O)N1CCOCC1)C(=O)NC(C=CS(=O)(=O)c1ccccc1)CCc1ccccc1` (stereo not drawn) [Compound 18b], the half-maximal inhibitory concentration (IC50) against falcipain-3 is 29 nM; against falcipain-2, 3.6 nM. In addition, the GI50 in [1] (W2, 48 h) was determined as 40 nM. The cytotoxicity at 40 h, 10 µM in [2] is < 5%. Further, the Ki (usually a measure of affinity in units of concentration, obtained from inhibition or displacement) on human cathepsin B is 210 nM.

With `CCCCC(NC(=O)C(CC(C)C)NC(C)=O)C(=O)c1nc2ccccc2o1` (stereo not drawn) [Compound 19c], the values for the 50% inhibitory concentration (IC50) on falcipain-3 (read-out: IC50 falcipain-3) and at falcipain-2 were 17 nM and 66 nM, respectively. For the same compound, the 50% growth inhibitory concentration (GI50) in series [1] (cultured W2 strain, 48 hours) amounted to 4800 nM. Besides, in series [2], the cytotoxicity at 40 h, 10 µM was < 5%. Besides, the results for the Ki at human cathepsin L and at human cathepsin B were 610 nM and 920 nM, respectively.

On to `N#CC1(NC(=O)C(CC2CCCCC2)NC(=O)c2cccc(-c3cccc(S(N)(=O)=O)c3)c2)CCS(=O)(=O)CC1` (stereo not drawn) [Compound 20], for which the concentration for half-maximal inhibition (IC50) on falcipain-3 (read-out: IC50 falcipain-3) amounted to 11 nM; against falcipain-2 it was 7.5 nM. Also, the concentration for 50% growth inhibition (GI50) in [1] (cultured W2 strain, 48 hours) was 170 nM. Also, in series [1] (cultured W2 strain, 48 hours), the “GI50 P. falc. W2” value was “sub-micromolar”. The cytotoxicity at 40 h, 10 µM in series [2] is < 5%.

As to `CC(C)CC(NC(c1ccc(-c2ccc(S(C)(=O)=O)cc2)cc1)c1nccs1)C(=O)NC1(C#N)CC1` (stereo not drawn) [Compound 21], the IC50 on falcipain-3 (read-out: IC50 falcipain-3) was found to be 2.4 nM; against falcipain-2, 2 nM. Also, the GI50 in series [1] (cultured W2 strain, 48 hours) was 870 nM. Moreover, in series [1] (cultured W2 strain, 48 hours), the “GI50 P. falc. W2” value was “sub-micromolar”. In series [2], the cytotoxicity at 40 h, 10 µM was < 5%. Moreover, the values for the Ki at human cathepsin L and on human cathepsin B were 32 nM and 6700 nM, respectively.

Turning to `CCC[C@H](NC(=O)C1(NC(=O)c2ccc(-c3csc(N4CCN(C)CC4)n3)cc2)CCCCC1)C(=O)c1nc2ccccc2o1` [Compound 23a], the values for the IC50 against rhodesain, at TbCatB and against cruzain were 3900 nM, 70 nM and 30 nM, respectively. Besides, the GI50 amounted to 4200 nM in series [3] and 19000 nM in [4]. The cytotoxicity at 40 h, 10 µM in series [2] is < 5%. Also, the results for the Ki on human cathepsin L and at human cathepsin B were 1100 nM and 320 nM, respectively.

Take `CCCC[C@H](NC(=O)C1(NC(=O)c2ccc(-c3csc(N4CCN(C)CC4)n3)cc2)CCCCC1)C(=O)c1nc2ccccc2o1` [Compound 23b]: the IC50 at rhodesain is 5000 nM; at TbCatB, 1 nM; against cruzain it was 380 nM. Besides, the results for the GI50 in series [3] and in [4] were 10500 nM and 7700 nM, respectively. Moreover, the cytotoxicity at 40 h, 10 µM in series [2] is < 5%. The inhibition constant Ki was 280 nM at human cathepsin L and 610 nM on human cathepsin B.
